Measured values from PubChem BioAssay (NCI).
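Method: 48-hour compound exposure of cells in 96-well plates, five concentrations, linear interpolation of endpoints. GI50: concentration for 50% inhibition of growth. Definition used: TGI = concentration required for complete inhibition of growth.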

How the values were obtained:
Test in all cases: inhibition of tumour cell growth, NCI panel, 48 h
[1] = tested on: CAKI-1 renal
[2] = tested on: HCT-15 colon
[3] = tested on: UACC-62 melanoma
[4] = tested on: BT-549 breast
[5] = tested on: KM12 colon
[6] = tested on: NCI-H226 lung
[7] = tested on: OVCAR-4 ovarian
[8] = tested on: A549 NSCLC
[9] = tested on: SK-MEL-28 melanoma
[10] = tested on: 786-0 renal
[11] = tested on: SK-OV-3 ovarian
[12] = tested on: MDA-MB-435
[13] = tested on: UO-31 renal
[14] = tested on: UACC-257 melanoma
[15] = tested on: PC-3 prostate
[16] = tested on: SF-539 CNS
[17] = tested on: SW-620 colon
[18] = tested on: SN12C renal
[19] = tested on: MALME-3M melanoma
[20] = tested on: K-562 leukemia
[21] = tested on: U251 CNS
[22] = tested on: HCC-2998 colon
[23] = tested on: IGROV1 ovarian
[24] = tested on: HS 578T breast
[25] = tested on: OVCAR-3 ovarian
[26] = tested on: SK-MEL-5 melanoma
[27] = tested on: NCI/ADR-RES ovarian
[28] = tested on: HOP-62 NSCLC
[29] = tested on: ACHN renal
[30] = tested on: SF-295 CNS
[31] = tested on: SNB-19 CNS
[32] = tested on: SNB-75 CNS
[33] = tested on: SK-MEL-2 melanoma
[34] = tested on: TK-10 renal
[35] = tested on: SR leukemia
[36] = tested on: M14 melanoma
[37] = tested on: RXF 393 renal
[38] = tested on: OVCAR-5 ovarian
[39] = tested on: NCI-H460 lung
[40] = tested on: MDA-MB-231 breast
[41] = tested on: MOLT-4 leukemia
[42] = tested on: NCI-H522 lung
[43] = tested on: SF-268 CNS
[44] = tested on: T-47D breast
[45] = tested on: COLO 205 colon
[46] = tested on: NCI-H23 lung
[47] = tested on: HOP-92 NSCLC
[48] = tested on: DU-145 prostate
[49] = tested on: A498 renal
[50] = tested on: OVCAR-8 ovarian
[51] = tested on: HT29 colon
[52] = tested on: MCF7 breast
[53] = tested on: HL-60(TB) leukemia
[54] = tested on: LOX IMVI melanoma
[55] = tested on: RPMI-8226 leukemia
[56] = tested on: HCT-116 colon

Work on `COc1ccc(C2C=C(c3ccc(OC)c(OC)c3)N=C3SC=CN32)c(Br)c1` (configuration not stated) yielded a GI50 [1] of 13.4 µM, a TGI [1] of 33.8 µM and a GI50 [2] of 1.76 µM. It also gave a TGI [2] of 5.13 µM, a GI50 [3] of 2.47 µM and a TGI [3] of 7.06 µM. For the same compound, the GI50 [4] was 2.1 µM, the TGI [4] was 5.71 µM and the GI50 [5] was 1.83 µM. It also gave a TGI [5] of 3.5 µM, a GI50 [6] of 2.84 µM and a TGI [6] of 25.5 µM. It also gave a GI50 [7] of 7.1 µM, a TGI [7] of 49.4 µM and a GI50 [8] of 2.4 µM. The TGI [8] was 7.86 µM, the GI50 [9] was 2.3 µM and the TGI [9] was 5.62 µM. For the same compound, the GI50 [10] was 2.72 µM, the TGI [10] was 8.22 µM and the GI50 [11] was 4.52 µM. It also gave a TGI [11] of 16.7 µM, a GI50 [12] of 2.8 µM and a TGI [12] of 10.5 µM. For the same compound, the GI50 [13] was 1.54 µM, the TGI [13] was 3.77 µM and the GI50 [14] was 2.98 µM. For the same compound, the TGI [14] was 12 µM, the GI50 [15] was 3.88 µM and the TGI [15] was 41 µM. For the same compound, the GI50 [16] was 1.87 µM, the TGI [16] was 4.18 µM and the GI50 [17] was 1.85 µM. For the same compound, the TGI [17] was 3.77 µM, the GI50 [18] was 4.77 µM and the TGI [18] was 21.2 µM. It also gave a GI50 [19] of 13.5 µM, a TGI [19] of 32.6 µM and a GI50 [20] of 2.82 µM. The TGI [20] was over 100 µM, the GI50 [21] was 1.6 µM and the TGI [21] was 3.24 µM. For the same compound, the GI50 [22] was 2.02 µM, the TGI [22] was 3.71 µM and the GI50 [23] was 2.25 µM. For the same compound, the TGI [23] was 5.51 µM, the GI50 [24] was 3.41 µM and the TGI [24] was over 100 µM. For the same compound, the GI50 [25] was 2.24 µM, the TGI [25] was 4.91 µM and the GI50 [26] was 3.02 µM. It also gave a TGI [26] of 10.1 µM, a GI50 [27] of 4.59 µM and a TGI [27] of 61.2 µM. The GI50 [28] was 3.16 µM, the TGI [28] was 11.1 µM and the GI50 [29] was 2 µM. The TGI [29] was 4.33 µM, the GI50 [30] was 11.5 µM and the TGI [30] was 26.9 µM. For the same compound, the GI50 [31] was 7.3 µM, the TGI [31] was 21.6 µM and the GI50 [32] was 3.1 µM. It also gave a TGI [32] of 14.3 µM, a GI50 [33] of 14.4 µM and a TGI [33] of 29.8 µM. It also gave a GI50 [34] of 3.64 µM, a TGI [34] of 15.3 µM and a GI50 [35] of 1.95 µM. For the same compound, the TGI [35] was 4.79 µM, the GI50 [36] was 2.23 µM and the TGI [36] was 5.32 µM. It also gave a GI50 [37] of 2.08 µM, a TGI [37] of 3.98 µM and a GI50 [38] of 6.44 µM. For the same compound, the TGI [38] was 28.4 µM, the GI50 [39] was 5.15 µM and the TGI [39] was 25.8 µM. For the same compound, the GI50 [40] was 4.5 µM, the TGI [40] was 21.3 µM and the GI50 [41] was 3.16 µM. For the same compound, the TGI [41] was 30.6 µM, the GI50 [42] was 3.11 µM and the TGI [42] was 11.7 µM. For the same compound, the GI50 [43] was 3.42 µM, the TGI [43] was 14.3 µM and the GI50 [44] was 3.2 µM. The TGI [44] was 11.5 µM, the GI50 [45] was 4.56 µM and the TGI [45] was 16.4 µM. For the same compound, the GI50 [46] was 9.45 µM, the TGI [46] was 27.3 µM and the GI50 [47] was 8.66 µM. The TGI [47] was 38.3 µM, the GI50 [48] was 3.44 µM and the TGI [48] was 11.6 µM. It also gave a GI50 [49] of 3.47 µM, a TGI [49] of 17.1 µM and a GI50 [50] of 3.2 µM. The TGI [50] was 17.1 µM, the GI50 [51] was 2.02 µM and the TGI [51] was 4.26 µM. The GI50 [52] was 0.807 µM, the TGI [52] was 2.24 µM and the GI50 [53] was 3.06 µM. It also gave a TGI [53] of 23 µM, a GI50 [54] of 1.88 µM and a TGI [54] of 3.74 µM. For the same compound, the GI50 [55] was 1.77 µM, the TGI [55] was 5.98 µM and the GI50 [56] was 1.52 µM. For the same compound, the TGI [56] was 3.25 µM.
